US8003663B2, “Pyrazolo[3,4-b]pyridine compounds, and their use as PDE4 inhibitors” (Glaxo Group Limited, priority 2006, dated 2011)
“Also recorded” adds a separate entry of the source. Counter-ions that a name gives are not always drawn.

What was measured:
[1] = test system: LPS-induced pulmonary neutrophilia in rats; assay: In Vivo Assay 1: LPS induced pulmonary neutrophilia in rats, intratracheally administered PDE4 inhibitors; set-up: species or system rat; details: for percentage mean inhibition of LPS-induced pulmonary neutrophilia / arithmetic mean percentage inhibition of LPS-induced pulmonary neutrophilia: rat, about 2 hours prior to LPS; for percentage mean inhibition of LPS-induced pulmonary neutrophilia: i.t. aqueous solution; for duration of action: preliminary tests; for arithmetic mean percentage inhibition of LPS-induced pulmonary neutrophilia: i.t. dry powder blended in lactose
From the text: This assay is an animal model of acute inflammation in the lung—specifically neutrophilia induced by lipopolysaccharide (LPS)—and allows the study of putative inhibition of such neutrophilia (anti-inflammatory effect) by an intratracheally (i.t.) administered PDE4 inhibitor (“drug”). The PDE4 inhibitors are suitably in dry powder, aqueous solution or aqueous suspension form. I.t. administration is one model of inhaled administration, allowing topical delivery to the lung.
Animals: Male CD (Sprague Dawley Derived) rats supplied by Charles River, United Kingdom are housed in groups of 5 rats per cage, acclimatised after delivery for at least 7 days with bedding/nesting material regularly changed, fed on SDS diet R1 pelleted food given ad lib, and supplied with daily-changed pasteurised animal grade drinking water.
Device for dry powder administration: For these studies, a Penn Century DP-4 dry powder intratracheal (i.t.) delivery device (insufflator) is used for administration of a dry powder blend of vehicle (inhalation grade lactose) and the PDE4 inhibitor compound or salt of the invention (“drug”). Each device is numbered and the sample loading chamber is unscrewed from the main device and weighed. The i.t. delivery needle is also weighed. The drug+lactose blend or inhalation grade lactose (vehicle control) is then added to the sample chamber and this is then re-weighed. The sample chamber is fitted back on to the main device to prevent any drug being lost. This procedure is repeated for all of the Penn century devices to be used in the study (one separate device for each animal). After dosing to the animals, the sample chambers and needles are re-weighed in order to determine the amount of sample that was expelled from the device.
Device for aqueous solution administration: A blunt dosing needle, whose forward end is slightly angled to the needle axis, is used, with a flexible plastic portex canula inserted into the needle. The portex cannula is inserted into the lumen of the blunt stainless steel dosing needle and this is carefully inserted into the back of the animal's throat and into the trachea via the larynx. A known volume (200 microliters) of the vehicle (0.2% Tween 80™ in saline) or of the solution (or suspension) drug composition is administered into the trachea using a plastic syringe that is attached to the portex cannula and dosing needle. A new internal cannula is used for each different drug group. After dosing, the needle is removed from the trachea and the animals are removed from the table and continually observed until they recover from the effects of anaesthesia. The animals are then returned to the holding cages and given free access to food and water, and are observed and any unusual behavioural changes noted. (Aqueous suspensions can be handled generally similarly.)
Drugs and Materials: Lipopolysaccharide (LPS) (Serotype:0127:B8, e.g. from Sigma, UK; e.g. L3129 prepared by phenol extraction) is dissolved in phosphate-buffered saline (PBS).
For dry powder, aqueous solution or aqueous suspension administration, PDE4 inhibitors are preferably used in size-reduced (e.g. micronised) form, for example according to the Micronisation Example(s) disclosed herein.
For dry powder administration of the drug, the PDE4 inhibitor compound or salt of the invention (drug) is administered as a dry powder blended with inhalation-grade (respiratory-grade) lactose, i.e. as a dry powder composition. The target quantity of dry powder composition administered i.t. to each animal is 2 mg. This remains constant throughout the studies. To achieve different doses, blends of the drug dry powder and lactose, containing different concentrations of the PDE4 inhibitor compound or salt of the invention (drug), are prepared. […]

[2] = orally 500 ug once daily for 9 days; daily intranasal allergen provocation (pollen extracts); cited from earlier work
[3] = cited from earlier work
[4] = cited from earlier work; remark: listed apart in the source
[5] = test system: LPS-induced nasal neutrophilia in rats; assay: In vivo assay 2: LPS induced nasal neutrophilia in rats, intranasally administered PDE4 inhibitors; details: rat, i.n. aqueous solution, about 30 minutes prior to LPS
From the text: This assay is an animal model of acute inflammation in the nose—specifically neutrophilia induced by lipopolysaccharide (LPS)—and allows the study of putative inhibition of such neutrophilia (anti-inflammatory effect) by an intranasally (i.n.) administered PDE4 inhibitor (“drug”). The PDE4 inhibitor is preferably in the form of an aqueous suspension or aqueous solution. Bolus, i.n. administration allows topical delivery to the nose.
Animals: Male CD rats (Sprague Dawley derived), weighing between 300-350 g are supplied by Charles River, UK and transported to the test site. On arrival at the test site, the animals are housed in groups of 4 or 5 per cage and complete a minimum acclimatisation period of 7 days. The animals are housed in solid bottomed cages using grade 8 sawdust. The bedding and nesting materials are changed 3 times per week. Diet comprises SDS diet R1 pelleted food given ad lib. Pasteurised animal grade drinking water is supplied and changed daily.
Lipopolysaccharide (Serotype: 0127:B8, e.g. available from Sigma, UK; e.g. L3129 prepared by phenol extraction) is used for all studies and is dissolved in phosphate-buffered saline (PBS).
Tween 80™ (e.g. available from Sigma e.g. 023K 01575). A mixture of 0.2% Tween 80™ in phosphate buffered saline (PBS) is prepared as vehicle for solution compositions. The Sigma catalogue 2004-2005 and The Handbook of Pharmaceutical Excipients (HPE) 4th edition 2003 pp. 479-483 define Tween 80™ as a brand of polysorbate 80 (according to HPE, polysorbate 80 is also named polyoxyethylene 20 sorbitan monooleate, i.e. having been copolymerised with about 20 moles of ethylene oxide for each mole of sorbitol and/or sorbitol anhydrides used).
The PDE4 inhibitor compound or salt of the invention (“drug”) is preferably used in size-reduced (e.g. micronised) form, for example according to the Micronisation Example(s) disclosed herein.
A solution of compound (0.7 mg/ml) is generally prepared by adding 0.2% Tween 80™ in phosphate buffered saline (PBS) to a pre-weighed micronised sample of the drug. The solution composition is sonicated, e.g. for approximately 2 min, and is observed to be a solution (if it is a solution) by visual assessment. A fixed volume of 50 microliters (25 microliters into each nostril) of either the drug-containing solution composition or a saline/Tween 80™ vehicle is administered to all animals. Each animal weighs, on average, 350 g. To achieve a dose of 100 μg/kg (100 ug/kg), each animal receives a total of 35 μg (35 ug) of the drug. The dose volume is 50 microliters (25 microliters to each nostril), and therefore a concentration of 35 μg (ug) per 50 microliters (0.7 mg/ml) is prepared. To achieve lower dose concentrations, serial dilutions are prepared in saline/Tween 80™. […]

CCc1nc2c(cnn2CC)c(NC2CCOCC2)c1CNC(=O)c1ccc(NC(=O)CCCCCCCN(C)CCO)cc1 [Example 1B, N-{[1,6-diethyl-4-(tetrahydro-2H-pyran-4-ylamino)-1H-pyrazolo[3,4-b]pyridin-5-yl]methyl}-4-({8-[(2-hydroxyethyl)(methyl)amino]octanoyl}amino)benzamide]
percentage mean inhibition of LPS-induced pulmonary neutrophilia ([1]; about 10 micrograms/kg): about 29%
percentage mean inhibition of LPS-induced pulmonary neutrophilia ([1]; about 30 micrograms/kg): about 75%
percentage mean inhibition of LPS-induced pulmonary neutrophilia ([1]; about 100 micrograms/kg): about 59%

O=C(Nc1c(Cl)cncc1Cl)c1ccc(OC(F)F)c(OCC2CC2)c1 [roflumilast]
rhinal airflow during the treatment period (compared to placebo) [2]: effective in improving rhinal airflow
FEV1 in COPD patients ([3]; human, in vivo): appears to show small improvements in FEV1

Nc1nc2c([nH]1)c(=O)n(CC1CC1)c(=O)n2CC1CC1 [cipamfylline]
effectiveness in the treatment of atopic dermatitis patients ([4]; 0.15% cream versus vehicle and hydrocortisone 17-butyrate (0.1%) cream): significantly more effective than vehicle, but significantly less effective than hydrocortisone 17-butyrate (0.1%) cream

CCc1nc2c(cnn2CC)c(NC2CCOCC2)c1CNC(=O)c1ccc(NC(=O)CCCCCCCN(C)CCO)cc1 [N-{[1,6-diethyl-4-(tetrahydro-2H-pyran-4-ylamino)-1H-pyrazolo[3,4-b]pyridin-5-yl]methyl}-4-({8-[(2-hydroxyethyl)(methyl)amino]octanoyl}amino)benzamide]
duration of action ([1]; after i.t. administration to the rat as a dry powder): 4 h
duration of action ([1]; after i.t. administration to the rat as an aqueous solution): ≥ 2 h

COc1ccc([C@]2(C#N)CC[C@@H](C(=O)O)CC2)cc1OC1CCCC1 [cilomilast]
forced expiratory volume in 1s (FEV1) in COPD patients ([3]; 15 mg orally twice daily): appears to improve forced expiratory volume in 1s (FEV1)
antiinflammatory effects in COPD patients ([3]; human, in vivo): appears to have anti-inflammatory effects; also recorded: appears to have antiinflammatory effects

CCc1nc2c(cnn2CC)c(NC2CCOCC2)c1CNC(=O)c1ccc(NC(=O)CCCCCCCN(C)CCO)cc1 [Example 1A2, N-{[1,6-diethyl-4-(tetrahydro-2H-pyran-4-ylamino)-1H-pyrazolo[3,4-b]pyridin-5-yl]methyl}-4-({8-[(2-hydroxyethyl)(methyl)amino]octanoyl}amino)benzamide monohydrochloride]
percentage inhibition (arithmetic mean) of LPS-induced nasal neutrophilia ([5]; about 1 micrograms/kg): essentially no inhibition
percentage inhibition (arithmetic mean) of LPS-induced nasal neutrophilia ([5]; about 3 micrograms/kg): small and non-statistically-significant inhibition
percentage inhibition (arithmetic mean) of LPS-induced nasal neutrophilia ([5]; about 10 micrograms/kg): about 62%
percentage inhibition (arithmetic mean) of LPS-induced nasal neutrophilia ([5]; about 100 micrograms/kg): about 79%
arithmetic mean percentage inhibition of LPS-induced pulmonary neutrophilia ([1]; about 10 micrograms/kg): about 29%
arithmetic mean percentage inhibition of LPS-induced pulmonary neutrophilia ([1]; about 30 micrograms/kg): about 44%
arithmetic mean percentage inhibition of LPS-induced pulmonary neutrophilia ([1]; about 100 micrograms/kg): about 39%
arithmetic mean percentage inhibition of LPS-induced pulmonary neutrophilia ([1]; about 300 micrograms/kg): about 55%

COc1ccc(C2CNC(=O)NC2)cc1O[C@H]1C[C@@H]2CC[C@H]1C2 [CP80,633]
inflammatory parameters in atopic dermatitis patients ([4]; 0.5% ointment, twice daily topical application): reductions of inflammatory parameters

CCc1nc2c(cnn2CC)c(NC2CCOCC2)c1CNC(=O)c1ccc(NC(=O)CCCCCCCN(C)CCO)cc1 [Example 1A1, N-{[1,6-Diethyl-4-(tetrahydro-2H-pyran-4-ylamino)-1H-pyrazolo[3,4-b]pyridin-5-yl]methyl}-4-({8-[(2-hydroxyethyl)(methyl)amino]octanoyl}amino)benzamide dihydrochloride]
percentage mean inhibition of LPS-induced pulmonary neutrophilia ([1]; about 10 micrograms/kg, dihydrochloride): about 33%
percentage mean inhibition of LPS-induced pulmonary neutrophilia ([1]; about 30 micrograms/kg, dihydrochloride): about 56%
percentage mean inhibition of LPS-induced pulmonary neutrophilia ([1]; about 100 micrograms/kg, dihydrochloride): about 76%
percentage mean inhibition of LPS-induced pulmonary neutrophilia ([1]; about 300 micrograms/kg): about 74%
